Assay results: patent US8575156B2, “Cyclic inhibitors of 11β-hydroxysteroid dehydrogenase 1” (Vitae Pharmaceuticals, Inc., priority 2007, dated 2013)

Biological target: 11β-HSD1 (Homo sapiens, UniProt P28845)
Test: biochemical
Conditions: for IC50: IC50 Range, Biological Test Example 1, microsomes from CHO cells overexpressing human 11β-HSD1; for inhibition at 0.1111 µM: read-out: Average % inhibition at 111.1 nM, Biological Test Example 1, 111.1 nM compound; for inhibition at 0.1 µM: read-out: Average % inhibition at 100 nM, Biological Test Example 1, 100 nM compound

Chain of 11β-HSD1 (P28845 whole entry): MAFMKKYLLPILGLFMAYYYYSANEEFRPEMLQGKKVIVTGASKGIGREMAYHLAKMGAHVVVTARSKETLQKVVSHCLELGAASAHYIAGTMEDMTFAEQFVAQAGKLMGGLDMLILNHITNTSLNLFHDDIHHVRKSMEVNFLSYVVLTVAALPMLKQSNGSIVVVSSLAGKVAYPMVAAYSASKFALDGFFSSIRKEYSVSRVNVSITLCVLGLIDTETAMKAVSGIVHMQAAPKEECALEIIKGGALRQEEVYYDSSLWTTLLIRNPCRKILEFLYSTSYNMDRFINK

Structure (SMILES)	IC50	inhibition at 0.1111 µM	inhibition at 0.1 µM
CC(O)C[C@]1(c2ccc(F)cc2)CCN([C@@H](C)c2ccc(-c3ccc(F)cc3F)cc2)C(=O)O1 (single isomer, unassigned) [EXAMPLE 137 Isomer 1]	< 100 nM	–	–
CC[C@@H](c1ccc(Br)cc1)N1CCC(CCO)(c2ccc(F)cc2)OC1=O (single isomer, unassigned) [EXAMPLE 143 Isomer 1]	< 100 nM	54.4%	–
C[C@@H](c1ccc(Br)cc1)N1CC[C@](CC(O)CO)(c2ccc(F)cc2)OC1=O (single isomer, unassigned) [EXAMPLE 144 Isomer 1]	< 100 nM	90.6%	–
C=CCC1(c2cccs2)CCN([C@@H](C)c2ccc(Br)cc2)C(=O)O1 (single isomer, unassigned) [EXAMPLE 157 Isomer 1]	< 100 nM	–	97.4%
C=CCC1(c2cccs2)CCN([C@@H](C)c2ccc(-c3ccc(F)cc3)cc2)C(=O)O1 (single isomer, unassigned) [EXAMPLE 160 Isomer 1]	< 100 nM	93.5%	–
CC1CC(CCO)(c2ccc(F)cc2)OC(=O)N1[C@@H](C)c1ccc(Br)cc1 (single isomer, unassigned) [EXAMPLE 163 Isomer 1]	< 100 nM	66.8%	–
CC(O)C[C@@]1(c2cccs2)CCN([C@@H](C)c2ccc(-c3ccc(F)cc3)cc2)C(=O)O1 (single isomer, unassigned) [EXAMPLE 167 Isomer 1]	< 100 nM	79%	73.7%
C[C@@H](c1ccc(-c2ccc(F)cc2)cc1)N1CC[C@](CC(O)CO)(c2ccccc2)OC1=O (single isomer, unassigned) [EXAMPLE 168 Isomer 1]	< 100 nM	–	97.2%
C[C@@H](c1ccc(-c2ccc(F)cc2F)cc1)N1CC[C@](CC(O)CO)(c2ccccc2)OC1=O (single isomer, unassigned) [EXAMPLE 173 Isomer 1]	< 100 nM	–	96.7%
C=CCC1(c2ccc(F)cc2)CCN([C@@H](C)c2ccc(C)cc2)C(=O)O1 (single isomer, unassigned) [EXAMPLE 189 Isomer 1]	< 100 nM	–	95.2%
C=CCC1(c2ccc(F)cc2)CCN([C@@H](C)c2ccc(OC)cc2)C(=O)O1 (single isomer, unassigned) [EXAMPLE 193 Isomer 1]	< 100 nM	–	–
C=CCC1(c2ccc(F)cc2)CCN([C@@H](C)c2ccc(Cl)cc2)C(=O)O1 (single isomer, unassigned) [EXAMPLE 196 Isomer 1]	< 100 nM	–	101%
C[C@@H](C1CCCCC1)N1CC[C@](CC(O)CO)(c2ccc(F)cc2)OC1=O (single isomer, unassigned) [EXAMPLE 197 Isomer 1]	< 100 nM	–	90.4%
CC(C)C1(CCCO)CCN([C@@H](C)c2ccc(Br)cc2)C(=O)O1 (single isomer, unassigned) [EXAMPLE 200 Isomer 1]	< 100 nM	–	–
CC(O)C[C@]1(c2ccc(F)cc2)CCN([C@@H](C)c2ccc(Cl)cc2)C(=O)O1 (single isomer, unassigned) [EXAMPLE 203 Isomer 1]	< 100 nM	–	88.6%
COc1ccc([C@H](C)N2CC[C@](CC(O)CO)(c3ccc(F)cc3)OC2=O)cc1 (single isomer, unassigned) [EXAMPLE 206 Isomer 1]	< 100 nM	–	90.3%
CC(C)C1(CCCO)CCN([C@@H](C)c2ccc(-c3ccc(F)cc3F)cc2)C(=O)O1 (single isomer, unassigned) [EXAMPLE 212 Isomer 1]	< 100 nM	–	96.8%
C[C@@H](c1ccc(-c2ccc(F)cc2)cc1)N1CC[C@](CCO)(c2cccs2)OC1=O (single isomer, unassigned) [EXAMPLE 218 Isomer 1]	< 100 nM	–	97.4%
C[C@@H](c1ccc(-c2ccc(F)cc2)cc1)N1CC[C@@](CCO)(c2cccs2)OC1=O (single isomer, unassigned) [EXAMPLE 218 Isomer 2]	< 100 nM	–	60.3%
CC(O)C[C@]1(c2ccccc2)CCN([C@@H](C)c2ccc(-c3ccc(F)cc3)cc2)C(=O)O1 (single isomer, unassigned) [EXAMPLE 224 Isomer 1]	< 100 nM	–	100%
C[C@@H](c1ccc(Br)cc1)N1CCC(CCCO)(c2ccc(F)cc2)OC1=O (single isomer, unassigned) [EXAMPLE 227 Isomer 1]	< 100 nM	–	–
CC[C@@H](c1ccc(Br)cc1)N1CC[C@](CC(O)CO)(c2ccccc2)OC1=O (single isomer, unassigned) [EXAMPLE 239 Isomer 1]	< 100 nM	–	91.5%
CC[C@@H](c1ccc(Br)cc1)N1CC[C@](CC(O)CO)(c2ccc(F)cc2)OC1=O (single isomer, unassigned) [EXAMPLE 255 Isomer 1]	< 100 nM	–	92.5%
